Data: PubChem BioAssay (NCI)
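Step 1: Grow cells in 96-well plates. Step 2: Expose to compound for 48 hours at 5 concentrations. Step 3: Interpolate endpoints linearly; if unreached, use highest concentration. GI50 is the concentration that inhibits growth by half. At the TGI there is no net growth.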

How the values were obtained:
Experiment in all cases: NCI-60 cell line screen, 48 h
NCI-H522 lung = tested on: NCI-H522 lung
A498 renal = tested on: A498 renal
SF-539 CNS = tested on: SF-539 CNS
HOP-92 NSCLC = tested on: HOP-92 NSCLC
OVCAR-4 ovarian = tested on: OVCAR-4 ovarian
UACC-257 melanoma = tested on: UACC-257 melanoma
ACHN renal = tested on: ACHN renal
MOLT-4 leukemia = tested on: MOLT-4 leukemia
NCI-H226 lung = tested on: NCI-H226 lung
EKVX NSCLC = tested on: EKVX NSCLC
SK-MEL-5 melanoma = tested on: SK-MEL-5 melanoma
SW-620 colon = tested on: SW-620 colon
TK-10 renal = tested on: TK-10 renal
HCT-116 colon = tested on: HCT-116 colon
NCI/ADR-RES ovarian = tested on: NCI/ADR-RES ovarian
MDA-MB-468 breast = tested on: MDA-MB-468 breast
SK-OV-3 ovarian = tested on: SK-OV-3 ovarian
HL-60(TB) leukemia = tested on: HL-60(TB) leukemia
SNB-75 CNS = tested on: SNB-75 CNS
SK-MEL-28 melanoma = tested on: SK-MEL-28 melanoma
UACC-62 melanoma = tested on: UACC-62 melanoma
CCRF-CEM leukemia = tested on: CCRF-CEM leukemia
MCF7 breast = tested on: MCF7 breast
U251 CNS = tested on: U251 CNS
RXF 393 renal = tested on: RXF 393 renal
KM12 colon = tested on: KM12 colon
MDA-MB-435 = tested on: MDA-MB-435
SF-295 CNS = tested on: SF-295 CNS

For `COc1ccc(-c2nc3cc(C)ccc3n2CC(=O)N=Nc2c(O)[nH]c3ccc(OC)cc23)cc1`, which TGI (NCI-H522 lung) is on record?
Its TGI is 15.3 µM.

What about the GI50 (A498 renal) of the same compound?
The GI50 was 11.2 µM.

What about the TGI (A498 renal) of the same compound?
The TGI was 24.6 µM.

And the GI50 (SF-539 CNS)?
Its GI50 is 1.62 µM.

And the TGI (SF-539 CNS)?
Its TGI is 3 µM.

What about the GI50 (HOP-92 NSCLC) of the same compound?
The GI50 was 1.83 µM.

What about the TGI (HOP-92 NSCLC) of the same compound?
The TGI was 4.07 µM.

What about the GI50 (OVCAR-4 ovarian) of the same compound?
Its GI50 is 1.84 µM.

What about the TGI (OVCAR-4 ovarian) of the same compound?
The TGI was 3.79 µM.

What about the GI50 (UACC-257 melanoma) of the same compound?
The GI50 was 2.38 µM.

What about the TGI (UACC-257 melanoma) of the same compound?
The TGI was 6.02 µM.

And the GI50 (ACHN renal)?
Its GI50 is 2.35 µM.

And the TGI (ACHN renal)?
Its TGI is 6.23 µM.

And the GI50 (MOLT-4 leukemia)?
The GI50 was 2.65 µM.

What about the TGI (MOLT-4 leukemia) of the same compound?
Its TGI is 8.57 µM.

And the GI50 (NCI-H226 lung)?
Its GI50 is 2 µM.

And the TGI (NCI-H226 lung)?
The TGI was 4.31 µM.

And the GI50 (EKVX NSCLC)?
Its GI50 is 3.28 µM.

What about the TGI (EKVX NSCLC) of the same compound?
The TGI was 12.5 µM.

What about the GI50 (SK-MEL-5 melanoma) of the same compound?
The GI50 was 1.64 µM.

What about the TGI (SK-MEL-5 melanoma) of the same compound?
Its TGI is 3.16 µM.

What about the GI50 (SW-620 colon) of the same compound?
Its GI50 is 2.11 µM.

What about the TGI (SW-620 colon) of the same compound?
Its TGI is 5.1 µM.

And the GI50 (TK-10 renal)?
The GI50 was 3.13 µM.

And the TGI (TK-10 renal)?
The TGI was 11.9 µM.

What about the GI50 (HCT-116 colon) of the same compound?
The GI50 was 1.74 µM.

What about the TGI (HCT-116 colon) of the same compound?
The TGI was 3.27 µM.

And the GI50 (NCI/ADR-RES ovarian)?
The GI50 was 2.34 µM.

What about the TGI (NCI/ADR-RES ovarian) of the same compound?
The TGI was 5.52 µM.

And the GI50 (MDA-MB-468 breast)?
Its GI50 is 2.05 µM.

And the TGI (MDA-MB-468 breast)?
Its TGI is 4.41 µM.

What about the GI50 (SK-OV-3 ovarian) of the same compound?
The GI50 was 4.32 µM.

And the TGI (SK-OV-3 ovarian)?
Its TGI is 15.6 µM.

And the GI50 (HL-60(TB) leukemia)?
Its GI50 is 1.72 µM.

And the TGI (HL-60(TB) leukemia)?
Its TGI is 5.22 µM.

What about the GI50 (SNB-75 CNS) of the same compound?
The GI50 was 1.49 µM.

What about the TGI (SNB-75 CNS) of the same compound?
The TGI was 3.35 µM.

And the GI50 (SK-MEL-28 melanoma)?
The GI50 was 1.73 µM.

And the TGI (SK-MEL-28 melanoma)?
The TGI was 3.19 µM.

And the GI50 (UACC-62 melanoma)?
The GI50 was 1.84 µM.

What about the TGI (UACC-62 melanoma) of the same compound?
Its TGI is 5.05 µM.

And the GI50 (CCRF-CEM leukemia)?
The GI50 was 3.6 µM.

And the TGI (CCRF-CEM leukemia)?
The TGI was 13.3 µM.

What about the GI50 (MCF7 breast) of the same compound?
The GI50 was 2.01 µM.

What about the TGI (MCF7 breast) of the same compound?
Its TGI is 4.96 µM.

And the GI50 (U251 CNS)?
Its GI50 is 2.09 µM.

What about the TGI (U251 CNS) of the same compound?
The TGI was 4.24 µM.

And the GI50 (RXF 393 renal)?
Its GI50 is 1.48 µM.

What about the TGI (RXF 393 renal) of the same compound?
Its TGI is 3.27 µM.

And the GI50 (KM12 colon)?
The GI50 was 1.85 µM.

What about the TGI (KM12 colon) of the same compound?
The TGI was 3.72 µM.

And the GI50 (MDA-MB-435)?
Its GI50 is 1.88 µM.

What about the TGI (MDA-MB-435) of the same compound?
Its TGI is 3.76 µM.

And the GI50 (SF-295 CNS)?
Its GI50 is 3.59 µM.

And the TGI (SF-295 CNS)?
Its TGI is 13.7 µM.
